In BindingDB's records for doi:10.1016/s0014-2999(98)00246-5 (The Royal Danish School of Pharmacy, 1998):

What was measured:
[1] = biological target: Metabotropic glutamate receptor 1 (Rattus norvegicus, UniProt P23385)
[2] = biological target: Metabotropic glutamate receptor 5 (Rattus norvegicus, UniProt P31424)
[3] = biological target: Metabotropic glutamate receptor 4 (Rattus norvegicus, UniProt P31423)
[4] = biological target: Metabotropic glutamate receptor 2 (Homo sapiens, UniProt Q14416)
Sequence of Metabotropic glutamate receptor 2 (Q14416 whole entry): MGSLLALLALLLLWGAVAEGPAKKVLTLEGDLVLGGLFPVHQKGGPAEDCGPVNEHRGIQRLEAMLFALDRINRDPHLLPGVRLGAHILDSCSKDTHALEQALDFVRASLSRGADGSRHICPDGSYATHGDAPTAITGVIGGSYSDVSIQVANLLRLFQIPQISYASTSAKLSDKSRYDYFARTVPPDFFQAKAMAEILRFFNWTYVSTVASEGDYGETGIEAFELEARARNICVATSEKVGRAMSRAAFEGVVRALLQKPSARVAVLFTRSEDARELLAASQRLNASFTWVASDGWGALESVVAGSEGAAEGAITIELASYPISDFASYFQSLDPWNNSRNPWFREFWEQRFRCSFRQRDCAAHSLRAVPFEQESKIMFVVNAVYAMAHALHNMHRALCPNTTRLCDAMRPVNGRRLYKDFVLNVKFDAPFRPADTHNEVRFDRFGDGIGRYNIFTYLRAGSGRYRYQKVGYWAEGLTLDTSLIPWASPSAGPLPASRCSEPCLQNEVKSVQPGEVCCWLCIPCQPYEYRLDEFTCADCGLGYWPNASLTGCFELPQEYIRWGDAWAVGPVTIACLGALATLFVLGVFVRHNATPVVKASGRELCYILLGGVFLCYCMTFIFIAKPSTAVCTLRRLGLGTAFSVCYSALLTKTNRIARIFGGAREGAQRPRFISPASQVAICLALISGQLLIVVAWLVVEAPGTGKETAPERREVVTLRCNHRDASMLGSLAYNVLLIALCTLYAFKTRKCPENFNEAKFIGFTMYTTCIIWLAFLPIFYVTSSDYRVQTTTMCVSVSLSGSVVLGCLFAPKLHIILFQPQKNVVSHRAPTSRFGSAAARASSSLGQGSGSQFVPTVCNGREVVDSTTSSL

Sequence of Metabotropic glutamate receptor 5 (P31424 whole entry): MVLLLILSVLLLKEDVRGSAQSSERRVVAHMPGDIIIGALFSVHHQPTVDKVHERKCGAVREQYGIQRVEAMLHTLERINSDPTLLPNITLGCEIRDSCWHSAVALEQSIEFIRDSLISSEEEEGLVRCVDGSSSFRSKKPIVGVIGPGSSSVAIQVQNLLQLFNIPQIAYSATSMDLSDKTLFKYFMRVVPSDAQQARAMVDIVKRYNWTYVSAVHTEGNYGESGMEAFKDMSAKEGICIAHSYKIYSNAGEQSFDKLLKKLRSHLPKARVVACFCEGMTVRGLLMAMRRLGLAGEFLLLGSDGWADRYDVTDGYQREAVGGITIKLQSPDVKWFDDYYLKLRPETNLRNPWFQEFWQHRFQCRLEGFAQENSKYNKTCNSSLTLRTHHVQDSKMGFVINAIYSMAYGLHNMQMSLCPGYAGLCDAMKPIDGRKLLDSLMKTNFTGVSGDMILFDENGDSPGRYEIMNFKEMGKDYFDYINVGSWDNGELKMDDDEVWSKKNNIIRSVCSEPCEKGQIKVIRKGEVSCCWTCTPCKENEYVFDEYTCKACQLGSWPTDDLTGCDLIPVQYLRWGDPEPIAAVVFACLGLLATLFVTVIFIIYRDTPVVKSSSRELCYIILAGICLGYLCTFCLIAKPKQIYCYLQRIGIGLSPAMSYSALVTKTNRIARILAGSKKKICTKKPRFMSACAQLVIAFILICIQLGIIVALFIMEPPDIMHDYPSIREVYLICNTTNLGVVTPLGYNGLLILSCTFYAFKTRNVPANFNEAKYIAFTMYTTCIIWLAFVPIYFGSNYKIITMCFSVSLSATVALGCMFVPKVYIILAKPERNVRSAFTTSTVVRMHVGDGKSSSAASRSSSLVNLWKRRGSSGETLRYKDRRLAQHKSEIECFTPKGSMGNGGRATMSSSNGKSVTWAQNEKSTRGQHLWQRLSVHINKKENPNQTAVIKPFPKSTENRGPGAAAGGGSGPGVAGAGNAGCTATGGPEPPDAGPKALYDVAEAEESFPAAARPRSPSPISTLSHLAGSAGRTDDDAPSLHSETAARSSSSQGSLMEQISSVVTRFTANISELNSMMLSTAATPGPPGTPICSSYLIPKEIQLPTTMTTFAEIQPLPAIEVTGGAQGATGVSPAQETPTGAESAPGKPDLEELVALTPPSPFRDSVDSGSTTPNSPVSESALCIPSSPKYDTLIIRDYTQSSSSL
Sequence of Metabotropic glutamate receptor 4 (P31423 whole entry): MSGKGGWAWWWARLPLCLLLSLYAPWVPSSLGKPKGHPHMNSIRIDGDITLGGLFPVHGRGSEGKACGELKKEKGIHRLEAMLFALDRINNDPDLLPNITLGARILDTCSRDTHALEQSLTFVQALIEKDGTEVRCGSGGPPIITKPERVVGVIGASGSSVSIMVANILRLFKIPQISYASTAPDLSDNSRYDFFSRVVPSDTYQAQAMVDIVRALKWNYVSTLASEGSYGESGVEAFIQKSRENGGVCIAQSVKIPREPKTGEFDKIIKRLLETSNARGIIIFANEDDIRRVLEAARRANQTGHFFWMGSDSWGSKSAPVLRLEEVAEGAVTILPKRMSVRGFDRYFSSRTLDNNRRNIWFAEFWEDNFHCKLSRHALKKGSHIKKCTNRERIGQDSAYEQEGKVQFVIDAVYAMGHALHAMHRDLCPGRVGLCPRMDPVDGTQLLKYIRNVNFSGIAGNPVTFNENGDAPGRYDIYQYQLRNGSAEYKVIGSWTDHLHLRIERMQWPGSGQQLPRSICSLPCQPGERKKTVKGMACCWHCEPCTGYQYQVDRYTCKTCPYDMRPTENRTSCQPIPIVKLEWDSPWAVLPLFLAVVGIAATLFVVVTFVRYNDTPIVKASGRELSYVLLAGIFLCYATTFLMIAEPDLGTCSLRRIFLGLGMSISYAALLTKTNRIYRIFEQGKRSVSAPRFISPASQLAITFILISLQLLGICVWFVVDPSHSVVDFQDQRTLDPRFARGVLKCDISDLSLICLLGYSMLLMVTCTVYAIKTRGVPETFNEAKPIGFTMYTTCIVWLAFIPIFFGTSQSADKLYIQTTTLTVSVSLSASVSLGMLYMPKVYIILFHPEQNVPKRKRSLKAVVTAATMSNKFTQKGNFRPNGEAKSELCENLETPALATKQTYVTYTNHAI
Sequence of Metabotropic glutamate receptor 1 (P23385 whole entry): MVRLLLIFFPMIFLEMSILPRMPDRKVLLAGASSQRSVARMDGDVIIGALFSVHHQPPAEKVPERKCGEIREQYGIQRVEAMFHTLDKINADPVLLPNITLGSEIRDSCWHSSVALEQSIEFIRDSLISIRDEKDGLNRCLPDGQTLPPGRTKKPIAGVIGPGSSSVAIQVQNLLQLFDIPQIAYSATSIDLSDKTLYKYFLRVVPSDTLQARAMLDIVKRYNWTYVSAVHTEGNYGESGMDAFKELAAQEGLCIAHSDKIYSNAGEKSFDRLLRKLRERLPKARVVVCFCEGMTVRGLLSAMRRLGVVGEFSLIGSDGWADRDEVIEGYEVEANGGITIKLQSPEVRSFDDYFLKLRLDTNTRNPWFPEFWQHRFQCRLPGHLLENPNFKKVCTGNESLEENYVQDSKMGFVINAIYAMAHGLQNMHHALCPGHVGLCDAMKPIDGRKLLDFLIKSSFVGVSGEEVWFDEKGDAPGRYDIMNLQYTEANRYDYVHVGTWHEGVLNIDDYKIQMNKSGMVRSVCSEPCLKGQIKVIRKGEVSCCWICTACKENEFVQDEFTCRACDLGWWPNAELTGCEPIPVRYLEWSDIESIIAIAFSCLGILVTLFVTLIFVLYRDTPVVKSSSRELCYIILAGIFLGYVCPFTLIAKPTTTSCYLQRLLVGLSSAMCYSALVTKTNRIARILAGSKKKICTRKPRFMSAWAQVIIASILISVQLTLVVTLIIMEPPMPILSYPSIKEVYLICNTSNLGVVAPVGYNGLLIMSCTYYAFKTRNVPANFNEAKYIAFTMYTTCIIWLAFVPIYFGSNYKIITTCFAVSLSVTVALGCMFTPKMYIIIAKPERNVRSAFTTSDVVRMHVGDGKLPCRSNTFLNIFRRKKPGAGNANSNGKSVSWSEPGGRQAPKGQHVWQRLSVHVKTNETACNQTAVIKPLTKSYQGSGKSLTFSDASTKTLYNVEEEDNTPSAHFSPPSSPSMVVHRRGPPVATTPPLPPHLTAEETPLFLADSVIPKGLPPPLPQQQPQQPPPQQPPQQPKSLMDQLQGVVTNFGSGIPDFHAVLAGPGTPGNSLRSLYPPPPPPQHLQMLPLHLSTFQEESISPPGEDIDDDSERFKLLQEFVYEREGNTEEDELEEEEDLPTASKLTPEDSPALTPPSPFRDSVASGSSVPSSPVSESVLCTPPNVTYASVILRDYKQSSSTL

Row | Ki [1] | Ki [2] | Ki [3] | Ki [4] | SMILES
1 | > 10 µM | > 10 µM |  |  | N[C@H](C(=O)O)c1ccc(C(=O)O)cc1 [4-((S)-Amino-carboxy-methyl)-benzoic acid]
2 | > 10 µM | > 10 µM | > 10 µM | > 10 µM | CCCCc1c(C[C@H](N)C(=O)O)o[nH]c1=O [(R)-Bu-HIBO]
3 | > 10 µM | > 10 µM | > 10 µM | > 10 µM | N[C@H](CCCC(=O)O)C(=O)O [CAS_542-32-5]
4 | > 10 µM | > 10 µM | > 10 µM | > 10 µM | CCCCc1c(O)noc1C[C@@H](N)C(=O)O [CAS_77006-30-5]
5 | > 10 µM | > 10 µM | > 10 µM | > 10 µM | N[C@@H](Cc1cc(=O)[nH]o1)C(=O)O [CAS_194385]
6 | > 10 µM | > 10 µM | > 10 µM | > 10 µM | N[C@H](Cc1cc(=O)[nH]o1)C(=O)O [CAS_194385]
7 |  |  | > 10 µM |  | N[C@@H](CCC(=O)O)C(=O)O [L-Glutamic acid]

Row | SMILES | Ki [1] | Ki [2] | Ki [3] | Ki [4]
8 | Cc1c(C[C@H](N)C(=O)O)o[nH]c1=O [(2S)-2-amino-3-(3-hydroxy-4-methyl-1,2-oxazol-5-yl)propanoic acid] |  | > 10 µM | > 10 µM | > 10 µM
9 | Cc1c(C[C@@H](N)C(=O)O)o[nH]c1=O [(S)-4-Methylhomoibotenic acid] | > 10 µM | > 10 µM | > 10 µM | > 10 µM
10 | NC(C(=O)O)c1cc(=O)[nH]o1 (stereo unspecified) [Amino-(3-hydroxy-isoxazol-5-yl)-acetic acid(Ibotenic acid)] | > 10 µM | > 10 µM | > 10 µM | 
11 | N[C@@H](Cc1o[nH]c(=O)c1Br)C(=O)O [NSC_2733518] | > 10 µM | > 10 µM | > 10 µM | > 10 µM
12 | N[C@H](Cc1onc(O)c1Br)C(=O)O [NSC_2733518] | > 10 µM | > 10 µM | > 10 µM | > 10 µM
